Laboratory results reported in PubChem BioAssay AID248 (DTP/NCI, 2004).
Toxic doses and inconclusive results are not listed. No stated cut-off is given here; in the data, active means T/C of 150% or more; inactive means T/C below 125%.

Tested on: L1210 leukemia ip in BDF1 mice, survival T/C
Assay: NCI In Vivo Anticancer Drug Screen. Data for tumor model L1210 Leukemia (intraperitoneal) in B6D2F1 (BDF1) mice
Settings: endpoint: mean survival time, higher = longer survival
Outline: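 Mice bearing the transplanted tumor received compound or vehicle. Survival of the treated group was divided by that of the vehicle-treated control group to give the ratio.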

[1] = dose: 50.0 mg/kg/injection, schedule: Q01DX001 (ip), vehicle: Klucel (hydroxypropylcellulose) (HPC)
[2] = dose: 100.0 mg/kg/injection, schedule: Q01DX001 (ip), vehicle: Klucel (hydroxypropylcellulose) (HPC)
[3] = dose: 100.0 mg/kg/injection, schedule: Q04DX003 (ip), vehicle: saline
[4] = dose: 200.0 mg/kg/injection, schedule: Q04DX003 (ip), vehicle: saline
[5] = dose: 100.0 mg/kg/injection, schedule: Q01DX001 (ip), vehicle: saline
[6] = dose: 200.0 mg/kg/injection, schedule: Q01DX001 (ip), vehicle: saline
[7] = dose: 400.0 mg/kg/injection, schedule: Q01DX001 (ip), vehicle: saline
[8] = dose: 25.0 mg/kg/injection, schedule: Q04DX003 (ip), vehicle: Klucel (hydroxypropylcellulose) (HPC)
[9] = dose: 50.0 mg/kg/injection, schedule: Q04DX003 (ip), vehicle: saline
[10] = dose: 100.0 mg/kg/injection, schedule: Q01DX009 (ip), vehicle: Klucel (hydroxypropylcellulose) (HPC)
[11] = dose: 100.0 mg/kg/injection, schedule: Q04DX002 (ip), vehicle: Klucel (hydroxypropylcellulose) (HPC)
[12] = dose: 200.0 mg/kg/injection, schedule: Q04DX002 (ip), vehicle: Klucel (hydroxypropylcellulose) (HPC)
[13] = dose: 400.0 mg/kg/injection, schedule: Q04DX002 (ip), vehicle: Klucel (hydroxypropylcellulose) (HPC)
[14] = dose: 50.0 mg/kg/injection, schedule: Q01DX001 (ip), vehicle: saline
[15] = dose: 100.0 mg/kg/injection, schedule: Q04DX003 (ip), vehicle: Klucel (hydroxypropylcellulose) (HPC)
[16] = dose: 25.0 mg/kg/injection, schedule: Q01DX009 (ip), vehicle: saline
[17] = dose: 25.0 mg/kg/injection, schedule: Q04DX003 (ip), vehicle: saline
[18] = dose: 50.0 mg/kg/injection, schedule: Q01DX009 (ip), vehicle: saline

Measured: T/C

CCCCCCCCCCCCCCC/C(CC)=N/Nc1ccc([N+](=O)[O-])cc1[N+](=O)[O-]
inactive: dose: 25.0 mg/kg/injection, schedule: Q01DX001 (ip), vehicle: Klucel (hydroxypropylcellulose) (HPC) 103 % of control | [1] 101 % of control | [2] 111 % of control

CC1=CC(C)(C)SC(=S)N1
inactive: dose: 75.0 mg/kg/injection, schedule: Q01DX009 (ip), vehicle: Klucel (hydroxypropylcellulose) (HPC) 98 % of control | [3] 111 % of control | dose: 150.0 mg/kg/injection, schedule: Q01DX009 (ip), vehicle: Klucel (hydroxypropylcellulose) (HPC) 104 % of control | [4] 104 % of control | dose: 300.0 mg/kg/injection, schedule: Q01DX009 (ip), vehicle: Klucel (hydroxypropylcellulose) (HPC) 108 % of control | dose: 400.0 mg/kg/injection, schedule: Q04DX003 (ip), vehicle: saline 96 % of control

CC(=O)NC(CO)(CO)CO
inactive: [5] 94 % of control | dose: 100.0 mg/kg/injection, schedule: Q01DX009 (ip), vehicle: saline 94 % of control | [6] 102 % of control | dose: 200.0 mg/kg/injection, schedule: Q01DX009 (ip), vehicle: saline 89 % of control | [7] 98 % of control | dose: 400.0 mg/kg/injection, schedule: Q01DX009 (ip), vehicle: saline 90 % of control

CCOC(=O)C(C#N)N=O (configuration not stated)
inactive: dose: 6.25 mg/kg/injection, schedule: Q04DX003 (ip), vehicle: Klucel (hydroxypropylcellulose) (HPC) 89 % of control | dose: 12.5 mg/kg/injection, schedule: Q04DX003 (ip), vehicle: Klucel (hydroxypropylcellulose) (HPC) 91 % of control | dose: 25.0 mg/kg/injection, schedule: Q01DX009 (ip), vehicle: Klucel (hydroxypropylcellulose) (HPC) 95 % of control | [8] 92 % of control | dose: 50.0 mg/kg/injection, schedule: Q01DX009 (ip), vehicle: Klucel (hydroxypropylcellulose) (HPC) 103 % of control | [9] 100 % of control | [10] 97 % of control

CC(C)(C)OC(=O)C1OC1(C)c1ccccc1 (configuration not stated)
inactive: dose: 75.0 mg/kg/injection, schedule: Q01DX001 (ip), vehicle: other 106 % of control | dose: 150.0 mg/kg/injection, schedule: Q01DX001 (ip), vehicle: other 107 % of control | dose: 300.0 mg/kg/injection, schedule: Q01DX001 (ip), vehicle: other 98 % of control

OCC(O)C(O)C(O)C(O)c1nc2ccccc2[nH]1 (configuration not stated)
inactive: [11] 105 % of control | [12] 87 % of control | [13] 97 % of control

CCCCCCCCCCCCC(=O)N1CCCCCC1
inactive: dose: 100.0 mg/kg/injection, schedule: Q04DX002 (ip), vehicle: saline 102 % of control | dose: 200.0 mg/kg/injection, schedule: Q04DX002 (ip), vehicle: saline 102 % of control | dose: 400.0 mg/kg/injection, schedule: Q04DX002 (ip), vehicle: saline 91 % of control

Cc1ccc(S(=O)(=O)OCCN(CCOS(=O)(=O)c2ccc(C)cc2)c2cccc([N+](=O)[O-])c2)cc1
inactive: [14] 97 % of control | [5] 100 % of control | [6] 97 % of control | [7] 88 % of control

S=C(C#Cc1ccccc1)Nc1ccccc1
inactive: dose: 100.0 mg/kg/injection, schedule: Q04DX002 (ip), vehicle: saline with Tween-80 93 % of control | dose: 200.0 mg/kg/injection, schedule: Q04DX002 (ip), vehicle: saline with Tween-80 86 % of control

Nc1c(I)cc2c(c1I)Cc1cc([N+](=O)[O-])ccc1-2
inactive: dose: 100.0 mg/kg/injection, schedule: Q01DX001 (ip), vehicle: carboxymethylcellulose (CMC) 106 % of control | dose: 200.0 mg/kg/injection, schedule: Q01DX001 (ip), vehicle: carboxymethylcellulose (CMC) 103 % of control | dose: 400.0 mg/kg/injection, schedule: Q01DX001 (ip), vehicle: carboxymethylcellulose (CMC) 103 % of control

O=C(Nc1nccs1)c1ccccc1F
inactive: [11] 87 % of control | [12] 97 % of control | [13] 102 % of control

CC12OC3(C)C4C(=O)OC1C1(C)OC4(C)C3C(=O)OC21
inactive: dose: 100.0 mg/kg/injection, schedule: Q01DX009 (ip), vehicle: saline with Tween-80 102 % of control | dose: 200.0 mg/kg/injection, schedule: Q01DX009 (ip), vehicle: saline with Tween-80 101 % of control | dose: 400.0 mg/kg/injection, schedule: Q01DX009 (ip), vehicle: saline with Tween-80 98 % of control

CSc1ncnc2c1ncn2-n1c(C)ccc1C
inactive: dose: 100.0 mg/kg/injection, schedule: Q01DX001 (ip), vehicle: saline with Tween-80 89 % of control | dose: 100.0 mg/kg/injection, schedule: Q04DX003 (ip), vehicle: saline with Tween-80 96 % of control | dose: 200.0 mg/kg/injection, schedule: Q01DX001 (ip), vehicle: saline with Tween-80 90 % of control | dose: 200.0 mg/kg/injection, schedule: Q04DX003 (ip), vehicle: saline with Tween-80 94 % of control | dose: 400.0 mg/kg/injection, schedule: Q01DX001 (ip), vehicle: saline with Tween-80 93 % of control | dose: 400.0 mg/kg/injection, schedule: Q04DX003 (ip), vehicle: saline with Tween-80 93 % of control

COc1ccc([N+](=O)[O-])cc1NC(=O)Nc1ccc(I)cc1
inactive: [10] 103 % of control | dose: 200.0 mg/kg/injection, schedule: Q01DX009 (ip), vehicle: Klucel (hydroxypropylcellulose) (HPC) 95 % of control | dose: 400.0 mg/kg/injection, schedule: Q01DX009 (ip), vehicle: Klucel (hydroxypropylcellulose) (HPC) 103 % of control

Cc1ccc(NC(=O)Nc2c(C)n(C)n(-c3ccccc3)c2=O)c([N+](=O)[O-])c1
inactive: [15] 94 % of control | dose: 200.0 mg/kg/injection, schedule: Q04DX003 (ip), vehicle: Klucel (hydroxypropylcellulose) (HPC) 91 % of control | dose: 400.0 mg/kg/injection, schedule: Q04DX003 (ip), vehicle: Klucel (hydroxypropylcellulose) (HPC) 91 % of control

Cc1cc2nc3ccc(=[N+](C)C)cc-3sc2cc1N
inactive: dose: 3.12 mg/kg/injection, schedule: Q01DX009 (ip), vehicle: saline 94 % of control | dose: 6.25 mg/kg/injection, schedule: Q01DX009 (ip), vehicle: saline 100 % of control | dose: 12.5 mg/kg/injection, schedule: Q01DX009 (ip), vehicle: saline 117 % of control | [16] 101 % of control | [17] 98 % of control | [18] 100 % of control | [9] 106 % of control

CC(=O)n1c(O)c(N=Nc2ccc([N+](=O)[O-])cc2[N+](=O)[O-])c2cc(Br)ccc21
inactive: [11] 92 % of control | [12] 92 % of control | [13] 92 % of control

CC(=O)Oc1cc(C)cc(OC(C)=O)n1
inactive: [14] 104 % of control | [5] 98 % of control | [6] 98 % of control | [7] 96 % of control

COC(=O)C(=O)c1c(O)n(-c2ccccc2)c2ccccc12
inactive: [8] 101 % of control | dose: 50.0 mg/kg/injection, schedule: Q04DX003 (ip), vehicle: Klucel (hydroxypropylcellulose) (HPC) 101 % of control | [15] 98 % of control

CC1(C)N=C(N)N=C(N)N1c1cc(Cl)ccc1Cl
inactive: dose: 12.0 mg/kg/injection, schedule: Q04DX003 (ip), vehicle: saline 117 % of control | dose: 12.5 mg/kg/injection, schedule: Q01DX001 (ip), vehicle: saline 98 % of control | dose: 25.0 mg/kg/injection, schedule: Q01DX001 (ip), vehicle: saline 90 % of control | [16] 101 % of control | [17] 100 % of control | [14] 98 % of control | [18] 97 % of control | [9] 103 % of control

O=c1[nH]c(=O)ss1
inactive: [3] 100 % of control | [4] 94 % of control

CC(=O)Nc1ccc(Cc2ccc(Br)cc2)cc1
inactive: [5] 96 % of control | [6] 106 % of control

Cc1nc(N)[nH]c(=O)c1CCCNC(=O)c1cccc(CBr)c1
inactive: [1] 101 % of control | [2] 100 % of control | [12] 102 % of control

O=[N+]([O-])c1ccc(OCCN2CCCC2)cc1
inactive: dose: 75.0 mg/kg/injection, schedule: Q01DX001 (ip), vehicle: saline 93 % of control | dose: 150.0 mg/kg/injection, schedule: Q01DX001 (ip), vehicle: saline 98 % of control
